Experimental data taken from US12493040B2, “Cancer detection method using sense of smell of nematode” (HIROTSU BIO SCIENCE INC., priority 2013, dated 2025).

System: RNAi-treated eri-1 (mg366) nematodes
Test: RNAi screening of olfactory receptor genes: chemotaxis assay of RNAi-treated nematodes to odorants
Type: in vivo, Caenorhabditis elegans
Details: low concentration of attractant
Description: The RNAi assay was carried out by performing an RNAi method involving the feeding (feeding RNAi method) of eri-1 (mg366) (19), using an Ahringer library (37).
Nine adult eri-1 mutants were placed on an NGM plate containing isopropyl 1-D-1-thiogalactopyranoside (0.19 g/L), ampicillin (60 mg/L), and Escherichia coli (E. coli), and were then cultured for 4 days. Subsequently, the adult worms were used in a chemotaxis assay. The chemotaxis assay was carried out as previously reported (6, 17). In the chemotaxis assay, the present inventor has used 30 to 50 worms in each experiment in which 1 μl of 10^−3- or 10^−4-diluted odorant (low concentration), or 1 and 5 μl of undiluted odorants (high concentration) were used.
The z score and a control value in each single test from 2SD were calculated in all days (Table 3) or every day. The z score was used as a threshold indicating a great difference (−1.96 and 1.96, P<0.05). […] Accordingly, the present inventor has used the z score±1 (−0.96 and 0.96, P<0.33) as a weaker threshold.

SMILES: CC(C)CCO [isoamyl alcohol]
- chemotaxis index (srh-10 RNAi-treated nematodes): −0.12
- chemotaxis index (srh-11 RNAi-treated nematodes): 0.05
- chemotaxis index (srh-15 RNAi-treated nematodes): 0.59
- chemotaxis index (srh-16 RNAi-treated nematodes): 0.86
- chemotaxis index (srh-18 RNAi-treated nematodes): 0.67
- chemotaxis index (srh-19 RNAi-treated nematodes): 0.67
- chemotaxis index (srh-22 RNAi-treated nematodes): 0.58
- chemotaxis index (srh-23 RNAi-treated nematodes): 0.54
- chemotaxis index (srh-24 RNAi-treated nematodes): 0.58
- chemotaxis index (srh-214 RNAi-treated nematodes): 0.63
- chemotaxis index (srh-216 RNAi-treated nematodes): 0.76
- chemotaxis index (srh-217 RNAi-treated nematodes): −0.12
- chemotaxis index (srh-220 RNAi-treated nematodes): 0.81
- chemotaxis index (srh-222 RNAi-treated nematodes): 0.80
- chemotaxis index (srh-223 RNAi-treated nematodes): 0.51
- chemotaxis index (srh-227 RNAi-treated nematodes): 0.43
- chemotaxis index (srh-229 RNAi-treated nematodes): −0.20
- chemotaxis index (srh-233 RNAi-treated nematodes): 0.36
- chemotaxis index (srh-235 RNAi-treated nematodes): 0.64
- chemotaxis index (srh-236 RNAi-treated nematodes): 0.41
- chemotaxis index (srh-239 RNAi-treated nematodes): 0.57
- chemotaxis index (srh-241 RNAi-treated nematodes): 0.63
- chemotaxis index (srh-243 RNAi-treated nematodes): 0.46
- chemotaxis index (srh-244 RNAi-treated nematodes): 0.74
- chemotaxis index (srh-247 RNAi-treated nematodes): 0.60
- chemotaxis index (srh-250 RNAi-treated nematodes): 0.47
- chemotaxis index (srh-251 RNAi-treated nematodes): 0.75
- chemotaxis index (srh-252 RNAi-treated nematodes): 0.59
- chemotaxis index (srh-258 RNAi-treated nematodes): 0.78
- chemotaxis index (srh-261 RNAi-treated nematodes): 0.51
- chemotaxis index (srh-264 RNAi-treated nematodes): 0.61
- chemotaxis index (srh-266 RNAi-treated nematodes): 0.25
- chemotaxis index (srh-274 RNAi-treated nematodes): 0.44
- chemotaxis index (srh-275 RNAi-treated nematodes): 0.39
- chemotaxis index (srh-276 RNAi-treated nematodes): 0.58
- chemotaxis index (srh-277 RNAi-treated nematodes): 0.54
- chemotaxis index (srh-279 RNAi-treated nematodes): 0.53
- chemotaxis index (srh-281 RNAi-treated nematodes): 0.51
- chemotaxis index (srh-282 RNAi-treated nematodes): 0.52
- chemotaxis index (srh-283 RNAi-treated nematodes): 0.34
- chemotaxis index (srh-284 RNAi-treated nematodes): 0.73
- chemotaxis index (srh-291 RNAi-treated nematodes): 0.80
- chemotaxis index (srh-292 RNAi-treated nematodes): 0.43
- chemotaxis index (srh-293 RNAi-treated nematodes): 0.71
- chemotaxis index (srh-297 RNAi-treated nematodes): 0.42
- chemotaxis index (srh-298 RNAi-treated nematodes): 0.68
- chemotaxis index (srh-308 RNAi-treated nematodes): 0.56

SMILES: O=Cc1ccccc1 [benzaldehyde]
- chemotaxis index (srh-10 RNAi-treated nematodes): 0.12
- chemotaxis index (srh-11 RNAi-treated nematodes): −0.11
- chemotaxis index (srh-15 RNAi-treated nematodes): −0.13
- chemotaxis index (srh-16 RNAi-treated nematodes): 0.83
- chemotaxis index (srh-18 RNAi-treated nematodes): 0.05
- chemotaxis index (srh-19 RNAi-treated nematodes): 0.64
- chemotaxis index (srh-22 RNAi-treated nematodes): 0.28
- chemotaxis index (srh-23 RNAi-treated nematodes): 0.54
- chemotaxis index (srh-24 RNAi-treated nematodes): 0.69
- chemotaxis index (srh-214 RNAi-treated nematodes): 0.57
- chemotaxis index (srh-216 RNAi-treated nematodes): 0.47
- chemotaxis index (srh-217 RNAi-treated nematodes): 0.76
- chemotaxis index (srh-220 RNAi-treated nematodes): 0.61
- chemotaxis index (srh-222 RNAi-treated nematodes): 0.76
- chemotaxis index (srh-223 RNAi-treated nematodes): 0.49
- chemotaxis index (srh-227 RNAi-treated nematodes): 0.56
- chemotaxis index (srh-229 RNAi-treated nematodes): −0.21
- chemotaxis index (srh-233 RNAi-treated nematodes): −0.11
- chemotaxis index (srh-235 RNAi-treated nematodes): 0.32
- chemotaxis index (srh-236 RNAi-treated nematodes): 0.31
- chemotaxis index (srh-239 RNAi-treated nematodes): 0.34
- chemotaxis index (srh-241 RNAi-treated nematodes): 0.66
- chemotaxis index (srh-243 RNAi-treated nematodes): 0.30
- chemotaxis index (srh-244 RNAi-treated nematodes): 0.43
- chemotaxis index (srh-247 RNAi-treated nematodes): 0.40
- chemotaxis index (srh-250 RNAi-treated nematodes): 0.40
- chemotaxis index (srh-251 RNAi-treated nematodes): 0.70
- chemotaxis index (srh-252 RNAi-treated nematodes): 0.71
- chemotaxis index (srh-258 RNAi-treated nematodes): 0.40
- chemotaxis index (srh-261 RNAi-treated nematodes): 0.45
- chemotaxis index (srh-264 RNAi-treated nematodes): 0.38
- chemotaxis index (srh-266 RNAi-treated nematodes): 0.32
- chemotaxis index (srh-274 RNAi-treated nematodes): 0.45
- chemotaxis index (srh-275 RNAi-treated nematodes): 0.16
- chemotaxis index (srh-276 RNAi-treated nematodes): 0.56
- chemotaxis index (srh-277 RNAi-treated nematodes): 0.49
- chemotaxis index (srh-279 RNAi-treated nematodes): 0.34
- chemotaxis index (srh-281 RNAi-treated nematodes): 0.33
- chemotaxis index (srh-282 RNAi-treated nematodes): 0.24
- chemotaxis index (srh-283 RNAi-treated nematodes): 0.21
- chemotaxis index (srh-284 RNAi-treated nematodes): 0.29
- chemotaxis index (srh-291 RNAi-treated nematodes): 0.58
- chemotaxis index (srh-292 RNAi-treated nematodes): 0.48
- chemotaxis index (srh-293 RNAi-treated nematodes): 0.31
- chemotaxis index (srh-297 RNAi-treated nematodes): 0.63
- chemotaxis index (srh-298 RNAi-treated nematodes): 0.66
- chemotaxis index (srh-308 RNAi-treated nematodes): 0.14
